The text below walks through data of ChEMBL document CHEMBL1153038, “Eusynstyelamides A, B, and C, nNOS inhibitors, from the ascidian Eusynstyela latericius” (J Nat Prod, 2009).

For one experiment, the system named is HCT-116. The experiment is described as follows: Cytotoxicity against human HCT116 cells. In kind it is functional, cell-based.
The target of a further experiment is Nitric oxide synthase 1 (Rattus norvegicus, UniProt P29476). The experiment is described as follows: Inhibition of rat cerebella nNOS synthase assessed as [3H]arginine to [3H]citrulline conversion by microbeta scintillation counting.
The subject of a further experiment is MCF7. The experiment is described as follows: Cytotoxicity against human MCF7 cells upto […] by SRB assay. Type of experiment: functional, cell-based. In general terms: In SRB staining, fixed cells bind dye roughly in proportion to their protein.
The next experiment relates to SF-268. The experiment is described as follows: Cytotoxicity against human SF268 cells upto […] by SRB assay. In kind it is functional, cell-based.
In a further experiment the test system is NCI-H460. Briefly: Cytotoxicity against human H460 cells upto […] by SRB assay. Type of experiment: functional, cell-based.
In a further experiment the test system is Staphylococcus aureus. Briefly: Antibacterial activity against Staphylococcus aureus after 24 hrs by microtiter dilution assay. In kind it is functional, organism-based.

pIC50: −log10 of the molar value.

Sequence of Nitric oxide synthase 1 (P29476 whole entry): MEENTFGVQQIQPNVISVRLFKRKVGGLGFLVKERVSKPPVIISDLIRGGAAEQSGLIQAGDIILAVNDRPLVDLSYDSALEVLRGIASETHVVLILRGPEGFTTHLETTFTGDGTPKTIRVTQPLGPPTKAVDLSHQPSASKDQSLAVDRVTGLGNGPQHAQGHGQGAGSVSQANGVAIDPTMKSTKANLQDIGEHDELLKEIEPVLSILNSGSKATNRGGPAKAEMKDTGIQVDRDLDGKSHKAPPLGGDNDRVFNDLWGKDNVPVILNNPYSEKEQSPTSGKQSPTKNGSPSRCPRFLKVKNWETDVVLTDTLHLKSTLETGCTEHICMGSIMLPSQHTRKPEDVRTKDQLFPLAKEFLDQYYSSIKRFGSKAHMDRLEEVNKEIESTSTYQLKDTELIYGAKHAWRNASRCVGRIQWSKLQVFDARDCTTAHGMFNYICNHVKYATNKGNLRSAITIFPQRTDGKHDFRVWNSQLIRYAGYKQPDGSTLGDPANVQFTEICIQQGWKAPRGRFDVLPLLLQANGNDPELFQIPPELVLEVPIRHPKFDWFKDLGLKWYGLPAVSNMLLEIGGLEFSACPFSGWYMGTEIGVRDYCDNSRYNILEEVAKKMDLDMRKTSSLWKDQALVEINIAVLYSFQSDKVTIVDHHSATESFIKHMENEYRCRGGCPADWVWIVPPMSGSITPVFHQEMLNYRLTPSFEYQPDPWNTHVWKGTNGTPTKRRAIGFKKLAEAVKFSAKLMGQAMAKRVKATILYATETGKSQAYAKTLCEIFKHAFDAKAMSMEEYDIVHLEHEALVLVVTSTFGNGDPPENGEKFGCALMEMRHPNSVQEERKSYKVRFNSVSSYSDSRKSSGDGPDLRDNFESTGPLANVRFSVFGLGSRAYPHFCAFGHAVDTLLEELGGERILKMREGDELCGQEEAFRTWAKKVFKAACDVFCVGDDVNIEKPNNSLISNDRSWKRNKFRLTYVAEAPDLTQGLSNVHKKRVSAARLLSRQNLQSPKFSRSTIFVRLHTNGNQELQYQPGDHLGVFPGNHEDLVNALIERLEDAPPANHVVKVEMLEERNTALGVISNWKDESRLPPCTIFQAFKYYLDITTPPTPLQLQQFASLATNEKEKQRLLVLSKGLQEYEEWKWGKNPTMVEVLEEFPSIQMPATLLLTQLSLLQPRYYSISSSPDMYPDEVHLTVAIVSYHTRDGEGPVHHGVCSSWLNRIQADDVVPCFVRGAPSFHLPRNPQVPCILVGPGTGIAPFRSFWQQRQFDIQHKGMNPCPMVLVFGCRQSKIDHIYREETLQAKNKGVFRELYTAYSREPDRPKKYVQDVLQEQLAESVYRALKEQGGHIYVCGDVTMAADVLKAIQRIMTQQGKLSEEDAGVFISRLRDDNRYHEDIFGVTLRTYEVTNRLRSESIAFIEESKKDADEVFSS

Take `NCCc1cc(O)c2nccc3c2c1Nc1ccccc1-3` [STYELSAMINE D]: in the experiment on HCT-116, the pIC50 is 5.80.
For the compound `CC(=O)NCCc1cc(O)c2nccc3c2c1Nc1ccccc1-3` [STYELSAMINE B], the pIC50 in the experiment on HCT-116 was 5.80.
`N=C(N)NCCCCNC(=O)[C@@]1(O)[C@H](c2c[nH]c3cc(Br)ccc23)[C@@](O)(Cc2c[nH]c3cc(Br)ccc23)C(=O)N1CCCCNC(=N)N`: the negative logarithm of the IC50 (pIC50) on Nitric oxide synthase 1 is 5.37; in the experiment on Staphylococcus aureus it was 5.19. Besides, the Activity entry with MCF7, in the experiment on SF-268 and in the experiment on NCI-H460 was “Not toxic” throughout.
The compound `O=Cc1cc(O)c2nccc3c2c1Nc1ccccc1-3` [STYELSAMINE C] gave a pIC50 in the experiment on HCT-116 of 5.80.
Still for that read-out and setting: for `NCC(O)c1cc(O)c2nccc3c2c1Nc1ccccc1-3` (centres undefined) [STYELSAMINE A] the value was 5.80.
Regarding `N=C(N)NCCCCNC(=O)[C@]1(O)[C@H](c2c[nH]c3cc(Br)ccc23)[C@@](O)(Cc2c[nH]c3cc(Br)ccc23)C(=O)N1CCCCNC(=N)N`, the pIC50 on Nitric oxide synthase 1 is 4.38; in the experiment on Staphylococcus aureus, 4.72. In addition, the Activity entry with MCF7, in the experiment with SF-268 and with NCI-H460 was “Not toxic” throughout.
In the experiment on HCT-116, `N=C(N)NCCCCNC(=O)C(O)(O)C(c1c[nH]c2cc(Br)ccc12)C(O)(Cc1c[nH]c2cc(Br)ccc12)C(=O)NCCCCNC(=N)N` (centres undefined) [EUSYNSTYELAMIDE] gave a pIC50 of 4.00.
Take `N=C(N)NCCCCNC(=O)[C@@]1(O)[C@H](c2c[nH]c3cc(Br)ccc23)[C@](O)(Cc2c[nH]c3cc(Br)ccc23)C(=O)N1CCCCNC(=N)N`: the pIC50 at Nitric oxide synthase 1 was 5.24. For the same compound, the Activity entry with MCF7, in the experiment with SF-268 and in the experiment with NCI-H460 was “Not toxic” each time.

Usually pIC50 stands for the IC50 on a negative log10 scale, so that one unit is a factor of ten.
